This experiment has as its system Nude mice, LX-1 lung xenograft intrarenal, tumor weight T/C. Kind of experiment: NCI In Vivo Anticancer Drug Screen. Data for tumor model Human Lung LX-1 Xenograft (intrarenal inoculation) in NU/NU BALB/C (nude) mice. To be noted: endpoint: mean tumor weight change, higher = larger tumour. On the procedure:
The antitumor activity of compounds was measured in mice bearing transplantable tumors. Survival or tumor size were measured and the results are expressed as the measurement made in the treated group (T) divided by the measurement made in the vehicle treated control group (C). The tumor model used in this assay is Human Lung LX-1 Xenograft (intrarenal inoculation) in NU/NU BALB/C (nude) mice

The mark [1] stands for this setting: dose: 600.0 mg/kg/injection, schedule: Q04DX003 (sc), vehicle: saline with Tween-80.
Where [2] appears, read: dose: 1200.0 mg/kg/injection, schedule: Q04DX003 (sc), vehicle: saline with Tween-80.
[3] abbreviates: dose: 150.0 mg/kg/injection, schedule: Q04DX003 (sc), vehicle: saline with Tween-80.
The mark [4] stands for this setting: dose: 300.0 mg/kg/injection, schedule: Q04DX003 (sc), vehicle: saline with Tween-80.

“And” between values parts separate entries of the source, which are not always exact repeats. Equal entries are not always repeated. Records with an inconclusive call do not appear.

On to `CC(Oc1ccccc1-c1ccccc1)C(=O)N(C)C` (stereo not given), for which the T/C runs as follows: under setting [1], 100 % of control; under setting [2], 116 % of control; (dose: 2400.0 mg/kg/injection, schedule: Q04DX003 (sc), vehicle: saline with Tween-80) 107 % of control.

`NC1=NC(=O)N2CC12` (stereo not given): the T/C (dose: 50.0 mg/kg/injection, schedule: Q04DX003 (sc), vehicle: saline) was 101 % of control; the T/C (dose: 100.0 mg/kg/injection, schedule: Q04DX003 (sc), vehicle: saline) is 102 % of control; the T/C (dose: 200.0 mg/kg/injection, schedule: Q04DX003 (sc), vehicle: saline) was 108 % of control.

`COc1cccc2c1C(=O)c1c(O)c3c(c(O)c1C2=O)C[C@@](O)(C(=O)CO)C[C@@H]3OC1CC(OC(C)=O)C(OC(C)=O)C(C)O1` (stereo not given in full): where the note is “dose: 25.0 mg/kg/injection, schedule: Q01DX010 (sc), vehicle: distilled water + Tween-80”, the T/C is 53 % of control.

For the compound `CCN(CC)Cc1cc2[nH]c3c4ccc(Cl)cc4ncc3c2cc1OC`, the T/C was 73 % of control (dose: 75.0 mg/kg/injection, schedule: Q04DX003 (sc), vehicle: saline with Tween-80); 71 % of control under setting [3]; 86 % of control under setting [4].

`Nc1ncnc2c(C3OC(CO)C(O)C3O)[nH]nc12` (stereo not given): the T/C runs as follows: (dose: 75.0 mg/kg/injection, schedule: Q04DX003 (sc), vehicle: suspension in saline) 83 % of control; (dose: 150.0 mg/kg/injection, schedule: Q04DX003 (sc), vehicle: suspension in saline) 37 % of control.

On to `CN(C)CCC(=O)C(=Cc1ccc(O)cc1)C(=O)CCN(C)C`, for which the T/C (dose: 75.0 mg/kg/injection, schedule: Q04DX003 (ip), vehicle: saline) was 95 % of control and the T/C (dose: 150.0 mg/kg/injection, schedule: Q04DX003 (ip), vehicle: saline) was 116 % of control.

`O=C(O)[C@H](Cc1ccccc1)N1C(=O)c2ccccc2C1=O`: the T/C is 98 % of control (dose: 150.0 mg/kg/injection, schedule: Q04DX003 (ip), vehicle: DMSO); 58 % of control (dose: 300.0 mg/kg/injection, schedule: Q04DX003 (ip), vehicle: DMSO); 53 % of control (dose: 600.0 mg/kg/injection, schedule: Q04DX003 (ip), vehicle: DMSO).

Turning to `O=C1N=C(Oc2ccccc2)SC1=O`, the T/C reads like this: (dose: 100.0 mg/kg/injection, schedule: Q04DX003 (sc), vehicle: saline with Tween-80) 87 % of control; (dose: 200.0 mg/kg/injection, schedule: Q04DX003 (sc), vehicle: saline with Tween-80) 93 % of control; (dose: 400.0 mg/kg/injection, schedule: Q04DX003 (sc), vehicle: saline with Tween-80) 54 % of control.

Consider `CN(C)c1nc(N(C)C)nc(N(C)C)n1`, for which the T/C is 63 % of control (dose: 12.5 mg/kg/injection, schedule: Q01DX010 (sc), vehicle: saline with Tween-80); 95 % of control (dose: 25.0 mg/kg/injection, schedule: Q01DX010 (sc), vehicle: saline with Tween-80); 51 % of control (dose: 60.0 mg/kg/injection, schedule: Q01DX010 (sc), vehicle: saline with Tween-80); 121 % of control (dose: 100.0 mg/kg/injection, schedule: Q01DX010 (sc), vehicle: saline with Tween-80); 58 % of control (dose: 120.0 mg/kg/injection, schedule: Q01DX010 (sc), vehicle: saline with Tween-80); 74 % of control (dose: 200.0 mg/kg/injection, schedule: Q01DX010 (sc), vehicle: saline with Tween-80).

For the compound `N#CC(OC1OC(COC2OC(CO)C(O)C(O)C2O)C(O)C(O)C1O)c1ccccc1` (stereo not given), the T/C is, setting by setting: (dose: 300.0 mg/kg/injection, schedule: Q04DX003 (sc), vehicle: saline) 162 % of control; (dose: 600.0 mg/kg/injection, schedule: Q04DX003 (sc), vehicle: saline) 115 % of control; (dose: 1200.0 mg/kg/injection, schedule: Q04DX003 (sc), vehicle: saline) 193 % of control; (dose: 2400.0 mg/kg/injection, schedule: Q04DX003 (sc), vehicle: saline) 158 % of control.

As to `CN(C)N=Nc1ccc(C(=O)O)cc1`, the T/C was 2 % of control and 4 % of control (dose: 50.0 mg/kg/injection, schedule: Q04DX003 (ip), vehicle: saline); -62 % of control and -40 % of control (dose: 400.0 mg/kg/injection, schedule: Q04DX003 (ip), vehicle: saline).

As to `CCOC(=O)c1c[nH]c2oc(/C=N/N3CC(CN4CCOCC4)OC3=O)cc2c1=O` (stereo not given), the T/C runs as follows: (dose: 50.0 mg/kg/injection, schedule: Q01DX010 (sc), vehicle: saline) 81 % of control; (dose: 200.0 mg/kg/injection, schedule: Q01DX010 (sc), vehicle: saline) 118 % of control.

For the compound `NC(CNC(=O)CBr)C(=O)O` (stereo not given), the T/C was 105 % of control (dose: 75.0 mg/kg/injection, schedule: Q04DX003 (sc), vehicle: water) and 79 % of control (dose: 150.0 mg/kg/injection, schedule: Q04DX003 (sc), vehicle: water).

On to `CC1=C/C(O)CC(=O)Cc2nc(co2)C(=O)N2CCC=C2C(=O)OC(C(C)C)C(C)/C=C\C(=O)NC/C=C\1` (stereo not given), for which the T/C by setting is: (dose: 300.0 mg/kg/injection, schedule: Q04DX003 (sc), vehicle: Klucel (hydroxypropylcellulose) (HPC)) 102 % of control; (dose: 600.0 mg/kg/injection, schedule: Q04DX003 (sc), vehicle: Klucel (hydroxypropylcellulose) (HPC)) 90 % of control; (dose: 1200.0 mg/kg/injection, schedule: Q04DX003 (sc), vehicle: Klucel (hydroxypropylcellulose) (HPC)) 69 % of control; (dose: 2400.0 mg/kg/injection, schedule: Q04DX003 (sc), vehicle: Klucel (hydroxypropylcellulose) (HPC)) 82 % of control.

For the compound `C=COC(=O)C(Cc1ccccc1)NC(=O)OCc1ccccc1` (stereo not given), the T/C is 114 % of control under setting [4], 118 % of control under setting [1] and 104 % of control under setting [2].

On to `CC(=O)Nc1cscc1NC(C)=O`, for which the T/C by setting is: under setting [3], 89 % of control; under setting [4], 121 % of control; under setting [1], 111 % of control; under setting [2], 110 % of control.

Turning to `CC(C)CCCCCCCCCCCCC(=O)NCC(=O)NC1C(O)C(O)C(Nc2ncnc3nc[nH]c23)OC1C(O)CO` (stereo not given), the T/C runs as follows: (dose: 0.4 mg/kg/injection, schedule: Q01DX010 (sc), vehicle: saline) 98 % of control; (dose: 0.8 mg/kg/injection, schedule: Q01DX010 (sc), vehicle: saline) 24 % of control.

Turning to `O=[N+]([O-])O.O=[N+]([O-])O.[NH-]C1CCCCC1[NH-].[Pt+2]` (stereo not given), the T/C by setting is: (dose: 0.5 mg/kg/injection, schedule: Q01DX010 (sc), vehicle: dextrose) 76 % of control; (dose: 1.0 mg/kg/injection, schedule: Q01DX010 (sc), vehicle: dextrose) 80 % of control.

On to `Cc1ccoc1`, for which the T/C by setting is: (dose: 50.0 mg/kg/injection, schedule: Q01DX010 (ip), vehicle: saline with Tween-80) 109 % of control; (dose: 100.0 mg/kg/injection, schedule: Q01DX010 (ip), vehicle: saline with Tween-80) 93 % of control; (dose: 200.0 mg/kg/injection, schedule: Q01DX010 (ip), vehicle: saline with Tween-80) 163 % of control; (dose: 400.0 mg/kg/injection, schedule: Q01DX010 (ip), vehicle: saline with Tween-80) 80 % of control.

Regarding `Cc1cc(NCCCCCCCCNc2cc(C)nc3cc(N(C)C)ccc23)c2ccc(N(C)C)cc2n1`, the T/C (dose: 37.5 mg/kg/injection, schedule: Q01DX010 (sc), vehicle: distilled water + Tween-80 + alcohol) was 51 % of control; the T/C (dose: 75.0 mg/kg/injection, schedule: Q04DX003 (sc), vehicle: distilled water + Tween-80 + alcohol) is 64 % of control; the T/C (dose: 150.0 mg/kg/injection, schedule: Q04DX003 (sc), vehicle: distilled water + Tween-80 + alcohol) was 46 % of control; the T/C (dose: 300.0 mg/kg/injection, schedule: Q04DX003 (sc), vehicle: distilled water + Tween-80 + alcohol) is 13 % of control.

As to `O=C1NC(=O)NC(C(=O)O)N1`, the T/C is, setting by setting: (dose: 100.0 mg/kg/injection, schedule: Q04DX003 (sc), vehicle: Klucel (hydroxypropylcellulose) (HPC)) 87 % of control; (dose: 200.0 mg/kg/injection, schedule: Q04DX003 (sc), vehicle: Klucel (hydroxypropylcellulose) (HPC)) 98 % of control; (dose: 400.0 mg/kg/injection, schedule: Q04DX003 (sc), vehicle: Klucel (hydroxypropylcellulose) (HPC)) 106 % of control.

As for `Cc1cc(=NO)cc(C)n1O`, the T/C reads like this: (dose: 300.0 mg/kg/injection, schedule: Q04DX003 (sc), vehicle: distilled water + alcohol) 102 % of control; (dose: 600.0 mg/kg/injection, schedule: Q04DX003 (sc), vehicle: distilled water + alcohol) 102 % of control; (dose: 1200.0 mg/kg/injection, schedule: Q04DX003 (sc), vehicle: distilled water + alcohol) 60 % of control.
